Data as given in BindingDB's records for patent US20250051319 (Augustine Therapeutics, 2025).

Assays:
Histone deacetylase 6 = biological target: T1, Histone deacetylase 6 (Homo sapiens, UniProt Q9UBN7); assay: HDAC6 Enzymatic Activity Assay
T1 sequence (Q9UBN7 whole entry): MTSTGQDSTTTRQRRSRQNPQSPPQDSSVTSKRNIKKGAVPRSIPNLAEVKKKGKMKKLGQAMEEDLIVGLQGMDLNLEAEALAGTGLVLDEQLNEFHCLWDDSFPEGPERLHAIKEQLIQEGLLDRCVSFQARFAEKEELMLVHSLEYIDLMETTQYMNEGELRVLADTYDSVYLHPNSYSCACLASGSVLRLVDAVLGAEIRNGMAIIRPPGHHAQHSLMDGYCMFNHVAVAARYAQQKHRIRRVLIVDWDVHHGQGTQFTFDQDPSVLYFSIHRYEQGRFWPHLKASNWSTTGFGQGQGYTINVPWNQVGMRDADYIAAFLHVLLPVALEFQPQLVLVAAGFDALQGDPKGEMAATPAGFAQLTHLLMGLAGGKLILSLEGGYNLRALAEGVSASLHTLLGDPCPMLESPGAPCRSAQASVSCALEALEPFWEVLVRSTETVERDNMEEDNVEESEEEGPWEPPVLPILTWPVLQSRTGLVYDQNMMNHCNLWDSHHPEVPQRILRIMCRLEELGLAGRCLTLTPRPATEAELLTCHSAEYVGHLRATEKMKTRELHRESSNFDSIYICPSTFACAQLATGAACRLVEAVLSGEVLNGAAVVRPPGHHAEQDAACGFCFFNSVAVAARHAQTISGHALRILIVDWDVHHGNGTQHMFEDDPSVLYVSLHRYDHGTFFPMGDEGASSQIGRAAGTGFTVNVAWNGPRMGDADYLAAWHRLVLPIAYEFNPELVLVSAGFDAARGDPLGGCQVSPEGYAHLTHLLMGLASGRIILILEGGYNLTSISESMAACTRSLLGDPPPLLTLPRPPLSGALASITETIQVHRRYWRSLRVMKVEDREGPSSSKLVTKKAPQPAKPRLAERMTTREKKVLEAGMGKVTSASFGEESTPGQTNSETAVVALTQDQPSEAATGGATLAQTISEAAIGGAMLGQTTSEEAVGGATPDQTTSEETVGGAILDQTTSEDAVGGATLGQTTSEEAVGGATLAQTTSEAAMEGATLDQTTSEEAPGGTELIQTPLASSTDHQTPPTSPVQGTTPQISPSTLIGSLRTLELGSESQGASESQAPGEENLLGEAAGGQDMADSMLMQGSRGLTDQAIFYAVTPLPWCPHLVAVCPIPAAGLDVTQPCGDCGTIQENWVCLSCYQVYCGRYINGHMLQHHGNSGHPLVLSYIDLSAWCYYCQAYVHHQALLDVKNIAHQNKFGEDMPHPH
Description: Dose response testing of HDAC6 and HDAC 1 were run at Reaction Biology Corporation (RBC). […] 2× enzyme was delivered in the wells of the reaction plate except for the “no enzyme” control wells. In the latter, buffer was added. Compounds in 100% DMSO were delved into the enzyme mixture by acoustic technology (Echo550). Plates are spun down and compounds were incubation with the enzyme for 10 min at room temperature. […] Developer containing Trichostatin A was added to stop the reaction and generate fluorescent color. A kinetic measurement was carried out for 20 min with 5 min interval on the Envision plate reader (Perkin Elmer, Ex/Em=360/460). End point reading i.e., plateau of the development reaction was used for analysis. Data was reported by RBC as percentage enzyme activity. Percentage inhibition was calculated by subtracting percentage enzyme activity from 100. IC50 values were calculated using GraphPad Prism 9 based on the log(inhibitor) vs. response—Variable slope (four parameters) equation.

[1] = biological target: T2, Histone deacetylase 6 [482-800] (Homo sapiens, UniProt Q9UBN7); assay: Cellular Target Engagement Assay
T2 construct: 482-800
T2 sequence (Q9UBN7 whole entry): T1 sequence (Q9UBN7 whole entry)
Description: NanoBRET target engagement was performed against the catalytic domain 2 (CD2) of HDAC6, with minor modifications of kit manufacturer protocol (Promega). Expression of exogenous NanoLuc-HDAC6(CD2) fusion and in HEK293T was achieved following transient transfection with FuGENE HD Transfection Reagent (Promega). […] Compounds (dissolved in 100% DMSO) or DMSO (vehicle) were added either manually by diluting them in culture medium at 8× final assay concentration and then adding 5 μL to assay plate or in an automated way by adding 160 nL compound to 5 μL OptiMEM without phenol red (Gibco) using the Echo650 (Labcyte). Tracer solution was added to the cells before seeding 35 μL cell/tracer mixture in the assay plate. […] Assay plates were incubated at 37° C. in a humidified atmosphere containing 5% C02 for 2 hours. […] BRET ratios were calculated from acceptor/donor signal ratio (mBRET=acceptor/donor*1000) and normalized for each plate. Percentage inhibition was calculated by setting the mBRET obtained with cells without tracer to 100%, while the mBRET obtained with uninhibited cells with tracer was set to 0%. IC50-values were calculated from the percentage inhibition with the log(inhibitor) vs. response—Variable slope (four parameters) nonlinear regression in GraphPad Prism software.

COCC(=O)NCc1ccc(C(=O)CSc2nc(C)nc3ncc(OC)cc23)s1 [US20250051319, Compound 163]
IC50 (Histone deacetylase 6): < 100 nM

O=C(CSc1nc(C(F)(F)F)nc2ncccc12)c1ccc(CN2CC[C@@H](O)C2=O)s1 [US20250051319, Compound 155]
IC50 [1]: < 100 nM
